Laboratory results taken from PubChem BioAssay (NCI).
Where “and” joins values, the source holds several entries; their conditions need not be identical. Equal values may be shown once.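 Exposure lasted 48 hours, with cells grown in 96-well plates and compounds tested at five concentrations. The concentration for 50% growth inhibition is given as GI50. Definition used: TGI = concentration required for complete inhibition of growth.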

Legend:
Experiment in all cases: DTP human tumour cell line panel, 48 h
SN12C renal = test system: SN12C renal
KM12 colon = test system: KM12 colon
SNB-19 CNS = test system: SNB-19 CNS
RXF 393 renal = test system: RXF 393 renal
EKVX NSCLC = test system: EKVX NSCLC
SK-MEL-5 melanoma = test system: SK-MEL-5 melanoma
LOX IMVI melanoma = test system: LOX IMVI melanoma
786-0 renal = test system: 786-0 renal
CCRF-CEM leukemia = test system: CCRF-CEM leukemia
DU-145 prostate = test system: DU-145 prostate

SMILES	TGI (SN12C renal)	TGI (KM12 colon)	TGI (SNB-19 CNS)	TGI (RXF 393 renal) [µM]	TGI (EKVX NSCLC)	TGI (SK-MEL-5 melanoma)	TGI (LOX IMVI melanoma)	TGI (786-0 renal) [µM]	TGI (CCRF-CEM leukemia)	GI50 (SN12C renal) [µM]	GI50 (KM12 colon) [µM]	GI50 (EKVX NSCLC) [µM]	GI50 (SK-MEL-5 melanoma) [µM]	GI50 (LOX IMVI melanoma) [µM]	GI50 (786-0 renal) [µM]	GI50 (CCRF-CEM leukemia) [µM]	GI50 (DU-145 prostate) [µM]	TGI (DU-145 prostate) [µM]	GI50 (SNB-19 CNS) [µM]	GI50 (RXF 393 renal) [µM]
O=C(/C=N/O)Nc1cccc(Cl)c1I	> 100 µM	> 100 µM	> 100 µM	74.9	79.4 µM	> 100 µM	> 100 µM	> 100	> 100 µM											
Cc1ccc(/C=C2\CCCC(C(NO)c3ccc(C)cc3)C2=NO)cc1 (stereo unspecified)	38.8 µM	45.1 µM	> 100 µM	71.9	> 100 µM	50.2 µM		> 100	49.8 µM											
CCOc1ccccc1NC(=O)C1=C(C)NC(C)=C(C(=O)Nc2ccccc2OCC)C1c1ccc2c(c1)OCO2	> 100 µM	50.7 µM	> 100 µM	> 100	> 100 µM	73.2 µM	> 100 µM	> 100	85.1 µM											
CCOC(=O)c1cnc2c(ccc3ncccc32)c1OCC	> 100 µM	> 100 µM	> 100 µM	> 100	> 100 µM	> 100 µM	> 100 µM	> 100	> 100 µM											
COc1ccc(S(=O)(=O)NNS(C)(=O)=O)cc1OC	> 100 µM	> 100 µM	> 100 µM	> 100	> 100 µM	> 100 µM	> 100 µM	> 100	> 100 µM											
Clc1ccc(/C=C/c2csnn2)cc1	> 100 µM	> 100 µM	> 100 µM	> 100	> 100 µM	> 100 µM	> 100 µM	> 100	> 100 µM											
Cc1ccc(-n2cc(/C(N)=N/O)c3ccccc3c2=O)cc1	> 100 µM	> 100 µM	> 100 µM		> 100 µM	> 100 µM	> 100 µM	> 100	> 100 µM											
Nc1nc2c(ncn2C2OC(CO)C(O)C2O)c(=O)[nH]1 (stereo unspecified)	> 100 µM and 162 µM	> 100 µM and 224 µM	> 100 µM and 21.6 µM	162	> 100 µM and 146 µM	> 100 µM and 103 µM	> 100 µM and 145 µM	> 100	> 100 µM and 217 µM	> 100	> 100	> 100	> 100	> 100	> 100	13.5				
Cc1cc2nc3c(C(OC4OC(CO)C(O)C(O)C4O)C(O)CO)nn(-c4ccc(F)cc4)c3nc2cc1C (stereo unspecified)	> 100 µM	> 100 µM	> 100 µM	> 100	> 100 µM		> 100 µM	> 100	> 100 µM											
O=C(NCCNC1=CC(=O)c2nc3ccccc3c3ccnc1c23)c1cnccn1	> 100 µM	63.4 µM	> 100 µM		> 100 µM	> 100 µM	> 100 µM	> 100	> 100 µM	49.5	11.2	> 100	54.7	33.9	36.7	1.94	43.8	> 100	42.2	
CC1(C)N=C(N)N=C(N)N1c1ccc(CCCCCCc2ccc(S(=O)(=O)F)cc2)cc1	7.02 µM		5.17 µM	> 33.1	21.3 µM	2.76 µM	> 20.9 µM	16.5										21.1		
O=C([CH-]C(=O)c1ccccc1)c1ccccc1.[CH2-]C.[CH2-]C.[Tl+3]	> 100 µM	> 100 µM	> 100 µM	88.7	80.1 µM	50.1 µM	54.7 µM	> 100		14.4	49.6	19.7	16.5	10.4	19.2		15.3	59.3	31.2	16.5
COc1ccc(C2C(C(=O)O)=C(COC(C)=O)Oc3cc4c(cc32)OCO4)c(OC)c1 (stereo unspecified)	> 100 µM		> 100 µM	> 100	> 100 µM	> 100 µM	> 100 µM	> 100	> 100 µM											
O=S1(=O)CS(=O)(=O)OCCCCCO1	> 100 µM	> 100 µM	> 100 µM	> 100	> 100 µM		> 100 µM	> 100	> 100 µM											
CCCCCCC1CCCCN1C(c1ccccc1)C(O)c1ccccc1 (stereo unspecified)	20.3 µM	19.4 µM	30 µM	6.77	21.3 µM	5.88 µM	12.4 µM	13.6		6.5	6.07	5.87	2.48	3.04	3.97		8.34	20.7	15.1	2.18
Nc1cccc(C(=O)/C=C/c2ccccc2O)c1	> 100 µM	> 100 µM	> 100 µM	> 100	> 100 µM	> 100 µM	> 100 µM	> 100	> 100 µM											
Cc1cccc(NC(=O)CSc2nnc(-c3ccc(N=Cc4ccc(Cl)cc4)cc3)o2)c1	> 100 µM	> 100 µM	> 100 µM	> 100	> 100 µM	> 100 µM	> 100 µM	> 100	> 100 µM											
NC(=O)C1C(=O)Oc2cccnc21 (stereo unspecified)	> 100 µM	> 100 µM	> 100 µM	> 100	> 100 µM	> 100 µM	> 100 µM	> 100	> 100 µM											
c1ccc2c(c1)n1nnnc1c1nnnn21	> 100 µM	> 100 µM	> 100 µM	> 100	> 100 µM	> 100 µM	> 100 µM	> 100	> 100 µM											
C=C(c1ccc(C(=O)NCCCn2ccnc2)cc1)c1cc2c(cc1C)C(C)(C)CCC2(C)C	10.8 µM	> 50.6 µM	> 100 µM	4.71	> 100 µM	2.43 µM	4.48 µM	5.45		< 0.0195	0.37	4.84	1.14	0.395	1.94		0.744	> 62.5	2.25	1.71
COc1cc([C@H]2c3cc4c(cc3[C@H](NCc3ccc(F)cc3)C3COC(=O)[C@H]32)OCO4)cc(OC)c1O (stereo partly specified)	6.67 µM	15.1 µM	51.2 µM	42.8	28.8 µM		17 µM	5.48	> 100 µM											

SMILES	TGI (SN12C renal)	TGI (KM12 colon)	TGI (SNB-19 CNS)	TGI (RXF 393 renal) [µM]	TGI (EKVX NSCLC)	TGI (SK-MEL-5 melanoma)	TGI (LOX IMVI melanoma)	TGI (786-0 renal) [µM]	TGI (CCRF-CEM leukemia)	GI50 (SN12C renal) [µM]	GI50 (KM12 colon) [µM]	GI50 (EKVX NSCLC) [µM]	GI50 (SK-MEL-5 melanoma) [µM]	GI50 (LOX IMVI melanoma) [µM]	GI50 (786-0 renal) [µM]	GI50 (CCRF-CEM leukemia) [µM]	GI50 (DU-145 prostate) [µM]	TGI (DU-145 prostate) [µM]	GI50 (SNB-19 CNS) [µM]	GI50 (RXF 393 renal) [µM]
COc1ccc(/C(C#N)=C2/O/C(=N/N)C(c3ccc(OC)c(OC)c3)C2=O)cc1OC (stereo unspecified)	> 100 µM	> 100 µM			> 100 µM	> 100 µM	> 100 µM	> 100	> 100 µM											
Cc1c(C(=O)/C=C/c2ccc3c(c2)OCO3)[n+](=O)c2ccccc2n1[O-]	> 100 µM	90.5 µM	> 100 µM	54.1	69.3 µM		66.3 µM	> 100	> 100 µM											
Cc1ccccc1NC(=O)C(=O)CC(=O)c1sc(-n2nc(-c3ccccc3)cc2-c2ccccc2)nc1C	> 100 µM	> 100 µM	> 100 µM	> 100	> 100 µM		> 100 µM	> 100	> 100 µM											
O=C(Nc1c(Cl)cc([N+](=O)[O-])cc1Cl)C(=O)C(C(=O)c1ccncc1)C1OC(=O)c2ccccc21 (stereo unspecified)	> 100 µM	> 100 µM	> 100 µM	> 100	> 100 µM		> 100 µM	> 100	> 100 µM											
COc1ccc(C2NC(c3ccc(OC)cc3)C(C)C(=O)C2C)cc1 (stereo unspecified)	> 100 µM	> 100 µM	> 100 µM	> 100	> 100 µM		> 100 µM	> 100	> 100 µM											
c1ccc(-c2nc3ccccc3[nH]2)c(OCCCCCOc2ccccc2-c2nc3ccccc3[nH]2)c1	24.5 µM	72.4 µM	31.9 µM		32.7 µM	19.5 µM	29.8 µM	35.3	29.8 µM	8.55	15.8	11.8	6.07	12.9	15.9	4.14	3.82	14.8	14.4	
CCOC(=O)C(=O)Nc1nc2ccc(OC)cc2s1	> 100 µM	> 100 µM	> 100 µM		> 100 µM	> 100 µM	> 100 µM	> 100	> 100 µM											
Fc1cccc(C2ON=C(c3ccccc3)N2C23CC4CC(CC(C4)C2)C3)c1 (stereo unspecified)	> 10 µM	> 10 µM	> 10 µM	> 10	> 10 µM	> 10 µM	> 10 µM	> 10										> 10		
O=C(O)c1cc2ccc(Cl)cc2c(O)c1C1=CCCCC1	> 100 µM	> 100 µM	> 100 µM	> 100	> 100 µM	81.9 µM	> 100 µM	> 100	> 100 µM											
CN(C)CCC(/C=C/c1ccccc1)=N\Nc1c(F)c(F)c(F)c(F)c1F	> 100 µM	> 100 µM	> 100 µM	> 100	> 100 µM	28.8 µM	> 100 µM	> 100	> 100 µM											
CCOc1ccc(N=Nc2c(-c3ccccc3)nn(C(=O)CC(=O)Nc3ccccc3Cl)c2-c2ccccc2)cc1	> 100 µM	> 100 µM	> 100 µM	> 100	> 100 µM	> 100 µM	> 100 µM	> 100	> 100 µM											
O=C(Cn1ccnc1[N+](=O)[O-])NCc1ccc(F)cc1	> 100 µM	> 100 µM	> 100 µM	> 100	> 100 µM	> 100 µM	> 100 µM	> 100	> 100 µM											
O=C(N[C@H]1CC2(C=C(I)C(=O)C(I)=C2)OC1=O)OCc1ccccc1	32.3 µM	29.5 µM	47.6 µM	28.8	27.3 µM	74.6 µM	30.6 µM	35.2	8.64 µM											
COC(=O)C1C(=O)NC2(C)CC1c1ccccc1O2 (stereo unspecified)	> 100 µM	> 100 µM	> 100 µM	> 100		> 100 µM	> 100 µM	> 100	> 100 µM											
CN(C)CN(C)c1nc(N(C)C)nc(N(C)C)n1	> 100 µM	> 100 µM	> 100 µM	> 100	> 100 µM	> 100 µM	> 100 µM	> 100	> 100 µM											
COc1cc(COC(=O)N(C)[C@@H](Cc2ccccc2)C(=O)O)c([N+](=O)[O-])cc1OC	> 100 µM	> 100 µM	> 100 µM		> 100 µM	> 100 µM		> 100	> 100 µM									> 100		
COc1cc2c(c(OC)c1OC)-c1ccc(SC)c(=O)cc1C(CC(=O)Oc1ccccc1F)C2 (stereo unspecified)	> 7.5 µM	0.0493 µM	> 7.5 µM				4.28 µM	> 7.5	> 7.5 µM											
CC1(C)O[C@@H](CCl)C[C@@H](C#N)O1		> 100 µM	> 100 µM	> 100	> 100 µM	> 100 µM	> 100 µM	> 100	> 100 µM											
Cc1cn([C@H]2CN(O)C[C@@H](CO)O2)c(=O)[nH]c1=O	> 100 µM	> 100 µM	> 100 µM	> 100	> 100 µM	> 100 µM		> 100										> 100		
O=C(CC/C(CC(=O)c1ccc(Cl)cc1)=N\O)Nc1cccc(Cl)c1	> 100 µM	> 100 µM	> 100 µM		> 100 µM	> 100 µM	> 100 µM	> 100	> 100 µM											
Cc1cc(N(CCC#N)CCC#N)ccc1/C=C1N=C(/C=C\c2ccccc2)N(c2ccc(C(=O)O)cc2)C\1=O	> 100 µM	> 100 µM	> 100 µM			> 100 µM	> 100 µM	> 100	> 100 µM											
